“Also recorded” adds a separate entry of the source. Where two headings read alike, the source gives them in different places.
What was measured:
Type in all cases: cell-based
[1] = test system: prostate cancer cells (PC-3); assay: MTT cell viability, prostate cancer cells; conditions: for Cell viability at higher concentrations: PC-3, 0.3 mM (or higher), 48 hrs, MTT
Experimental: (§1) The cells (1×10^5 cells/well in 24-well plates) were cultured for 24 hrs. Different concentrations of Sal-B and its analogs (0, 50, 100, 150, 200, 250 μg/ml) were added to treat the cells. After treating for 48 hrs, 100 μl MTT solution was added to each well, and the plate was placed in an incubator for 1-4 hrs. After adding 400 μl DMSO to treat the cells for 30 min., 200 μl samples were collected and placed in a 96-well plate to conduct the absorption measurement at 550 nm.
Cancer cells were treated with Sal-B and EBA at concentrations of 0, 0.1, 0.2, 0.3, 0.4, 0.5 mM. After treating for 48 hrs, MTT was added, and then allowed to react for 3 hrs at 37° C. After that, DMSO was added and allowed to react for 30 min., the OD570 absorption values were measured. Cell viability was above 80% when nasopharyngeal cancer cells (Hone-1) were treated with […] Sal-B and EBA. […] But the cell viability remained above 70% for treating with 0.1 mM and 0.2 mM EBA. Similar results were obtained when prostate cancer cells (PC-3) were treated with the drugs: Cell viability was above 80% for treating PC-3 cells with 0.2 mM Sal-B or EBA.
MTT testing was employed to observe the viability of cancer cells after treating with Sal-B and the six synthetic analogs.

[2] = test system: normal mammary gland cell line (A1N4); assay: Cytotoxicity test on normal mammary gland cells
Experimental: as §1

ETAR mRNA expression = assay: Real-time quantitative RT-PCR of ETAR mRNA in smooth muscle cells (A10); conditions: vascular smooth muscle cells, 100 μg/ml, 48 hrs
Experimental: Extraction of cellular RNA: Subculturing smooth muscle cells to 100-mm culture dishes. After the cells had filled the culture dishes, Sal-B and its analogs were added to treat the cells for 48 hrs. After that, 1×PBS solutions were added to wash the cells three times. After adding 1 ml TRIzol, the cells were scraped off and placed in 1.5 ml micro-centrifuge tubes. Following the addition of 0.2 ml chloroform to each tube, the tubes were shaken, left at room temperature for 3 min., and run in a centrifuge at 12,000 rpm for 15 min. The supernatant liquid was removed and the cells placed in new micro-centrifuge tubes. After adding an amount of isopropyl alcohol equivalent to one-half of the volume of the supernatant liquid, and mixing until homogeneous, the samples were allowed to stand at room temperature for 10 min. The supernatant liquid was removed after centrifugation at 12,000 rpm for 10 min. 1 ml 70% alcohol was added to wash out salts, followed by centrifugation for 5 min. and removal of supernatant liquid. The samples were dissolved in 50 μl DEPC-H2O after drying.
(1) cDNA synthesis: 1 μl Random hexamer primer (20 μM) and 1 μl dNTP(10 mm) were added to 3 μg RNA, which was allowed to react at 65° C. for 5 min., and then placed on ice promptly. After the addition of 2 μl 10× reaction buffer, 0.5 μl RNaseOUT (40 unit/μl) and 1 μl SuperScript III RT (200 unit/μl), the solution was mixed until homogeneous, and allowed to react at 50° C. for 50 min. After that, the mixture was heated to 85° C. for 5 min. to terminate the enzymatic reaction. The samples were preserved at −70° C. for later use.
(2) PCR quantitative analysis: After adding 7.5 μl PCR primer mix (400 nm each) and 15 μl SYBR Green dye reagent to the 7.5 μl cDNA template, the solution was placed in Bio-Rad's iCycler for PCR reaction. The resulting data was inputted into Gene Expression Analysis for iCycler iQ Real-Time PCR Detection System for quantitative analysis of gene expression.
Furthermore, after treating vascular smooth muscle cells with 100 μg/ml of either Sal-B or EBA for 48 hrs, the identical concentrations of cellular whole RNA were sampled for the synthesis of cDNA by using reverse transcriptase. The PCR method was employed to determine the amounts of endothelin receptor mRNA expression. […] For the analysis of ETAR mRNA expression by using the real-time PCR method, vascular smooth muscle cells at full confluence 100-mm culture dishes were treated with 100 μg/ml of either Sal-B or EBA for 48 hrs. The identical concentrations of cellular whole RNA were sampled for the synthesis of cDNA by using reverse transcriptase. The real-time PCR method was used to compare the amounts of ETAR mRNA expression.
The different analogs, compounds A to F, had different effects on ETAR mRNA expression. The control group represented treating smooth muscle cells (A10) with DMSO, and the positive control group represented treating the cells with Sal-B. The smooth muscle cells were treated with 0.2 mM Sal-B and compounds A to F for 48 hrs. The identical concentrations of cellular RNA were sampled for the synthesis of cDNA by using reverse transcriptase. The real-time PCR method was employed to determine the amounts of ETAR mRNA expression. Compared with the control group, compound B had the least effect on down-regulating ETAR mRNA expression, as approximately 50% of the ETAR mRNA remained after the treatment. […]

PC-3 cancer cells = assay: Flow cytometry cell cycle analysis (sub-G1, apoptosis) of PC-3 cells; conditions: PC-3, 0.4 mM, 48 hrs, PI flow cytometry; control around 1.18%
Experimental: After suspending cells, the precooled 70% ethanol was used for fixing the cells. After centrifuging the mixture for 10 min. at 3,000 rpm, supernatant liquid was removed. Propidium iodide (PI) buffer (0.1% Triton X-100, 0.2 μg/ml RNase A, 40 μg/ml PI) was added, and then the solution was kept still at 37° C. for 30 min. After that, the cell cycle analysis was conducted by flow cytometry.
Flow cytometry was used to determine whether Sal-B and its analogs induced apoptosis in cancer cells. After treating PC-3 cancer cells with 0.4 mM Sal-B and EBA, and 0.01 mM compounds B and A for 48 hrs, the cells were collected and allowed to react with PI buffer for 30 min. Flow cytometry was then employed to measure the cell cycle. Approximately 5.16% of PC-3 cancer cells were at sub-G1 phase after treating with Sal-B, roughly 5.27% were at sub-G1 phase after treating with compound B, and roughly 8.54% were at sub-G1 phase after treating with compound A. However, for the control, only around 1.18% of the cells were at sub-G1 phase. Therefore, Sal-B and its analogs (compounds B and A) thus caused a significant increase in the percentage of cells at sub-G1 phase.

Compound: epiblechnic acid [EBA]
- Cell viability at higher concentrations [1]: did not significantly reduce the cell viability
- Cytotoxicity to normal cells [2]: no significant difference was observed on the cytotoxicity results
- ETAR mRNA expression, % of that in the control (ETAR mRNA expression): roughly 51%
- PC-3 cancer cells at sub-G1 phase (PC-3 cancer cells): approximately 1.73%

Compound: O=C(/C=C/c1ccc(O)c2c1[C@H](C(=O)O[C@H](Cc1ccc(O)c(O)c1)C(=O)[O-])[C@@H](c1ccc(O)c(O)c1)O2)O[C@H](Cc1ccc(O)c(O)c1)C(=O)[O-].[Mg+2] [Sal-B, magnesium lithospermate B]
- Cell viability at higher concentrations [1]: the cell viability was reduced
- Viability of PC-3 cells as the concentration is increased ([1]; PC-3, MTT, increasing concentration, FIG. 1): reduced as the concentration of Sal-B was increased
- Cytotoxicity to normal cells ([2]; A1N4 normal mammary gland cells, FIG. 2): no significant difference was observed on the cytotoxicity results; also recorded: not highly toxic to normal cells
- ETAR mRNA expression, % of that in the control (ETAR mRNA expression): approximately 27%
- PC-3 cancer cells at sub-G1 phase (PC-3 cancer cells): Approximately 5.16%

From patent US8080582B2, “Derivatives of 8-epiblechnic acid and their effects on down-regulation of endothelin (ETA) receptor mRNA” (ScinoPharm Taiwan Ltd., priority 2008, dated 2011)
